According to patent US10952940B2, “Reagents and methods for mineralization of tooth enamel” (UNIVERSITY OF WASHINGTON, priority 2016, dated 2021):
Several values for one entry are separate records, joined by “and”; a condition that tells them apart may be missing. Equal values may be shown once. Entries after “also recorded” stand apart in the source; their conditions may differ. Where no end group is shown, it is not given here.

Key:
[1] = 0.8 mM sADP5 10 minutes, then Ca/PO4 1 hour at 37° C.
Procedure: Extracted human teeth samples were collected from University of Washington clinics. The enamel tissue was cut out the using low speed saw on a perpendicular direction to the underlying dentin tubules. Next, the smear layer on the dentin was removed by polishing down to 0.1 um finish and etching for 10 seconds using 10% citric acid solution. For remineralization treatment, samples were soaked into 200 ul of 0.8 mM sADP5 peptide (SEQ ID NO:24) solution and incubated for 10 minutes at 37° C. Next, excess peptide was removed by blotting and the sample was soaked in 24 mM Tris Buffer solution supplemented with 4.8 mM Ca and 2.88 mM PO4 ions for 1 hour at 37° C. Following the remineralization treatment, samples were rinsed with deionized water, dried in air and characterized with scanning electron microscope

[2] = Side-by-side comparison of peptide-mineralized whitening versus commercial whitening products; settings: Image-J analysis of optical images; strip 30 mins, gel 10 minutes, peptide 0.8 mM 10 mins + artificial saliva 1 hr
Procedure: The whitening products were used according to the manufacturers' directions. For the strip, the product was applied to the pre-stained tooth for 30 mins and peeled off. Then the samples were rinsed with water for 1 min to clean the surface of the teeth from any residues from the strip. In the case of the second product, the gel was applied to the pre-stained teeth for 10 minutes and then cleaned by rinsing with water for 1 minute. In the peptide-remineralization case, the stained teeth were incubated with sADP5 (SEQ ID NO:24) peptide solution (0.8 mM) for 10 mins., followed by soaking in the artificial saliva (for 1 hr) that was supplemented with 4.8 mM Ca and 2.9 mM PO4 ionic concentrations.
The samples treated with whitening products or with the remineralization method were prepared for optical imaging for color change and also for surface characterization with scanning electron microscopy. The images of the teeth samples were recorded using a light optical microscopy technique under compact fluorescent light. The recorded images were digitized and examined with Image-J Line (NIH Software) for quantitative analysis of the color change (a, d, f and h). The cross-sectioned samples were prepared for SEM examination of the internal as well as surface structure of the teeth, and the results are shown in FIG. 15 (e, g, and i, plus their inset images).

[3] = Layer-by-layer mineralization by peptide in solution on white spot lesion; set-up: species or system human; settings: 0.8 mM sADP5
Procedure: On extracted human tooth, the entire tooth was painted with lacquer (nail polish) except a 3 mm by 3 mm window on enamel. This window was subjected to etching then remineralization. The following steps were then carried out:
• 1. Etch enamel surface aqueous solution of 2.2 mM K2HPO4, 2.2 mM CaCl2, and 50 mM acetic acid at pH 4.5 for 2 weeks, changing solution every other day, to create white spot lesion (WSL) […]. • 2. Soak in 100 ml of 0.8 mM sADP5 solution at 37 C for 10 minutes then blot dry with tissue paper. • 3. Soak in 600 ml of 4.8 mM CaCl2+2.8 mM K2HPO4 in pH 7.4 Tris buffer at 37 C for 1 hour. • 4. Drip rinse with DI water for 20 seconds then blot dry with Kimwipe™ sheet. • 5. Repeat steps 3-4 to add more mineralized layers. Results & Discussions—

[4] = Solid binding affinity to HAp
Excerpt: The ADP5 peptide was generated using a procedure that was developed for designing protein derived peptides as described previously. Briefly, 7-AA and 12-AA long hydroxyapatite binding peptides (HABPs) were experimentally selected using the c7c- and 12-phage libraries (New England BioLabs Inc., Ipswich, Mass., USA), respectively. Next, the 180 amino acid-long human amelogenin protein (rM180) was divided into 7-AA and 12-AA long segments and each segment was compared with all of the 155 experimentally selected HABPs. The regions with high similarity scores from 7-AA and 12-AA long segments were overlapped and those coinciding high similarity regions were chosen as the putative strong binding regions. These computationally determined high similarity regions were then refined to design the ADPs by protein structure prediction, Ca^2+ ion-binding domain predictions, and meta-functional signature analyses. Two separate assays were developed to characterize the ADPs: Solid binding affinity to HAp and mineralization in aqueous solution. […] Because of this property, ADP5 has been used for developing mineralization on human teeth. […] For this, we eliminated the six amino acids from the amino end and alanine from the carboxyl end, while keeping the charged amino acids intact that are thought to initiate mineralization. […]

[5] = Mineralization in aqueous solution (kinetics)
Procedure: Fast kinetics refers to fast mineral formation, such as immediate mineral formation, while slow mineral formation refers to mineral formation over a period of time, such as about 5 minutes to about 1 hour. In some embodiments, a first biomineralizing peptide having faster kinetics can be used in combination with a second biomineralizing peptide having slower kinetics.
The ADP5 peptide was generated using a procedure that was developed for designing protein derived peptides as described previously. Briefly, 7-AA and 12-AA long hydroxyapatite binding peptides (HABPs) were experimentally selected using the c7c- and 12-phage libraries (New England BioLabs Inc., Ipswich, Mass., USA), respectively. Next, the 180 amino acid-long human amelogenin protein (rM180) was divided into 7-AA and 12-AA long segments and each segment was compared with all of the 155 experimentally selected HABPs. The regions with high similarity scores from 7-AA and 12-AA long segments were overlapped and those coinciding high similarity regions were chosen as the putative strong binding regions. These computationally determined high similarity regions were then refined to design the ADPs by protein structure prediction, Ca^2+ ion-binding domain predictions, and meta-functional signature analyses. […]

Row | Substance | depth of mineral penetration into tubules [1] | occlusion of exposed dentin tubules [1] | increase of tooth shade above tea-stained baseline [2] | Ca/P of new mineral layers ([3]; after 4 repetitions) | number of distinctive mineral layers formed ([3]; after 4 repetitions of the mineralization steps) | binding to HAp [4] | mineralization kinetics [5]
1 | (SYEKSHSQAINTDRT)1-10 (also: repeated 1-10 times) [sADP5] | 2-3 um | successfully occluded | 4.64% and 4.6% | 1.43+0.15 | 4 | – | –
2 | (PGYIN(L/F)SYE(K/N)SHSQAIN(T/V)DRTA)1-10 [ADP5] | – | – | – | – | – | one of the weakest binding peptides | fastest mineralization kinetics; also recorded: fast kinetic profile
3 | (HPP(S/T)HTLQPHHH(L/I)PVVPAQQPV(A/I)PQQPMMPVPG(H/Q)HSMTP(T/I)QH)1-10 [ADP7] | – | – | – | – | – | – | slow kinetic profile
